Measurements from patent EP0949270A1, “Synthetic peptides containing citrulline recognized by rheumatoid arthritis sera as tools for diagnosis and treatment” (INNOGENETICS N.V., priority 1998, dated 1999).
Ends that are not written are not given here.

What was measured:
[1] = tested on: antifilaggrin antibodies in human sera; assay: Line Immuno Assay (LIA): reactivity of streptavidin-complexed synthetic peptides with human sera; type: binding; settings: for LIA signals: 26 human RA sera (Fig. 3), peptides applied at 400 µg/ml, citrulline-containing peptides versus non-modified counterparts; for Reactivity in the LIA system: 75 sera from patients fulfilling the ARA criteria for RA, 13 synthetic peptides tested; for Immunoreaction towards peptide, comparison between peptides: in all serum groups; for Reactivity of sera on synthetic peptides: sera IG35038/ 35041
From the text: Human sera were obtained from the Department of Rheumatology of the University Hospital in Ghent (Belgium). In total, 265 sera were included, of which 75 fulfilled the ARA criteria for RA (Arnett et al., Arthritis Rheum.,31: 315-324, 1987), 155 sera scored positive in the APF fluorescence test (De Keyser et al., in press), 98 reacted with natural filaggrin on Western blot, 80 were APF negative and 16 were derived from healthy controls.
Streptavidin-complexed peptides were applied directly on a nylon membrane with a plastic backing. Blocked strips were incubated overnight with human sera diluted 1/100 in 1 ml PBS, 0.5% caseine, 0.1% Triton X705, 10 mM MgCl2.6H2O. After washing with PBS, 0.05% Tween20, goat anti-human IgG-AP conjugated (Promega) diluted in PBS, 0.1% caseine, 0.2% Triton X705 was added for 1h30. Strips were developed in 100 mM NaCl, 100 mM Tris-HCl, pH 9.8, 50 mM MgCl2.6H2O substrate buffer containing the chromogenic substrate NBT/ BCIP. Reaction was stopped after 30 min by addition of 0.2 N H2SO4.

anti-filaggrin binding = assay: Inhibition ELISA on plates coated with human natural filaggrin, sera preincubated with competitor; settings: peptide as competitor at 100 µg/ml; 4 APF positive sera
Description: Electro-eluted human natural filaggrin was coated in Maxisorp polystyrene plates at a concentration of 1 or 4 µg/ml in 50 mM carbonate buffer, pH 9.6 overnight at 4°C. Sera were diluted 1/50 in PBS, and preincubated with either the appropriate peptides at 100 µg/ml, with isolated natural filaggrin at 1 or 10 µg/ml (positive control) or with PBS (negative control) for 2 hours. The plates were blocked 1 hour with PBS, 0.1% caseïne at 37°C and subsequently incubated with the sera. During 2 hours at 37°C. Plates were washed 5 times with PBS, 0.05% Tween 20 and incubated with anti-human IgG-HRP in PBS, 0.1 % caseïne, 0.1 mM K3Fe(CN)6. Colour development was performed using tetramethylbenzidine diluted 1/100 into 0.1 M Na2HPO4, 0.1 M citric acid, 0.006% H2O2, pH 4.3. Reaction was stopped by addition of 2N H2SO4 and OD values were measured at 450 nm using a Bio-tek ELISA reader. The percentage of inhibition was caculated as folows: [formula]

[2] = serum group APF neg., number of sera 80
[3] = serum group APF pos., number of sera 155
[4] = serum group Fg blot pos., number of sera 98
[5] = serum group Healthy, number of sera 16
[6] = serum group RA sera, number of sera 75

For “DSGHRGYSGSQASDNEGH [IGP1157] (also: Arg may be citrulline in one of each IGP pair, not given here)”, the LIA signals [1] was “positive”, the “Reactivity in the LIA system” value [1] was “Reactivity was noted” and the “Immunoreaction towards peptide, comparison between peptides” value (shortened to “Immunoreaction towards peptide”) [1] was “very faint”. For the same sequence, the “Reactivity of sera on synthetic peptides” value [1] was “negative”, the “Immunoreactivity of human sera with synthetic peptide: number of reactive sera” value (from here on “Immunoreactivity … number of reactive sera”) [1, 2] was 2/61 and the “Immunoreactivity of human sera with synthetic peptide: percentage of reactive sera” value (“Immunoreactivity … percentage of reactive sera” for short) [1, 2] was 3.3%. The “Immunoreactivity … number of reactive sera” value [1, 3] was 4/128, the “Immunoreactivity … percentage of reactive sera” value [1, 3] was 3.1% and the “Immunoreactivity … number of reactive sera” value [1, 4] was 4/94. The “Immunoreactivity … percentage of reactive sera” value [1, 4] was 4.2%, the “Immunoreactivity … number of reactive sera” value [1, 5] was 0/10 and the “Immunoreactivity … percentage of reactive sera” value [1, 5] was 0%. The “Immunoreactivity … number of reactive sera” value [1, 6] was 3/72 and the “Immunoreactivity … percentage of reactive sera” value [1, 6] was 4.2%.

“DSGHRGYSGSQASDNEGH [IGP1181] (also: Arg may be citrulline in one of each IGP pair, not given here) [reference compound]” was tested, and the LIA signals [1] was “disappeared completely”.

GGQGSRHQQAR [IGP1249] was tested, and the “Reactivity in the LIA system” value [1] was “Reactivity was noted”, the “Immunoreactivity … number of reactive sera” value [1, 2] was 1/79 and the “Immunoreactivity … percentage of reactive sera” value [1, 2] was 1.3%. The “Immunoreactivity … number of reactive sera” value [1, 3] was 23/150, the “Immunoreactivity … percentage of reactive sera” value [1, 3] was 15.3% and the “Immunoreactivity … number of reactive sera” value [1, 4] was 17/94. The “Immunoreactivity … percentage of reactive sera” value [1, 4] was 18.1%, the “Immunoreactivity … number of reactive sera” value [1, 5] was 1 and the “Immunoreactivity … percentage of reactive sera” value [1, 5] was 6.3%. The “Immunoreactivity … number of reactive sera” value [1, 6] was 9/73 and the “Immunoreactivity … percentage of reactive sera” value [1, 6] was 12.3%.

For “HSASQDGQDTIRGHPGSS [IGP1155] (also: Arg may be citrulline in one of each IGP pair, not given here)”, the LIA signals [1] was “positive”, the “Reactivity in the LIA system” value [1] was “Reactivity was noted” and the “Reactivity of sera on synthetic peptides” value [1] was “negative”. The “Immunoreactivity … number of reactive sera” value [1, 2] was 4, the “Immunoreactivity … percentage of reactive sera” value [1, 2] was 5.5% and the “Immunoreactivity … number of reactive sera” value [1, 3] was 35. The “Immunoreactivity … percentage of reactive sera” value [1, 3] was 22.6%, the “Immunoreactivity … number of reactive sera” value [1, 4] was 35 and the “Immunoreactivity … percentage of reactive sera” value [1, 4] was 37.2%. For the same sequence, the “Immunoreactivity … number of reactive sera” value [1, 5] was 1, the “Immunoreactivity … percentage of reactive sera” value [1, 5] was 6.3% and the “Immunoreactivity … number of reactive sera” value [1, 6] was 17. For the same sequence, the “Immunoreactivity … percentage of reactive sera” value [1, 6] was 22.7% and the “number of sera significantly inhibited” value (anti-filaggrin binding) was 2 out of 4.

For “HSASQDGQDTIRGHPGSS [IGP1179] (also: Arg may be citrulline in one of each IGP pair, not given here) [reference compound]”, the LIA signals [1] was “disappeared completely”.

“HSGIGHGQASSAVRDSGHRGYS [IGP1156] (not fully specified; also: Arg may be citrulline in one of each IGP pair, not given here)” was tested, and the LIA signals [1] was “positive”, the “Reactivity in the LIA system” value [1] was “Reactivity was noted” and the “Immunoreaction towards peptide” value [1] was “best reactive”. The “Reactivity of sera on synthetic peptides” value [1] was “negative”, the “Immunoreactivity … number of reactive sera” value [1, 2] was 4 and the “Immunoreactivity … percentage of reactive sera” value [1, 2] was 5.5%. The “Immunoreactivity … number of reactive sera” value [1, 3] was 50, the “Immunoreactivity … percentage of reactive sera” value [1, 3] was 32.2% and the “Immunoreactivity … number of reactive sera” value [1, 4] was 46. The “Immunoreactivity … percentage of reactive sera” value [1, 4] was 48.9%, the “Immunoreactivity … number of reactive sera” value [1, 5] was 2 and the “Immunoreactivity … percentage of reactive sera” value [1, 5] was 12.5%. The “Immunoreactivity … number of reactive sera” value [1, 6] was 25 and the “Immunoreactivity … percentage of reactive sera” value [1, 6] was 33.3%.

“HSGIGHGQASSAVRDSGHRGYS [IGP1180] (also: Arg may be citrulline in one of each IGP pair, not given here) [reference compound]” was tested, and the LIA signals [1] was “disappeared completely”.

For “HSTSQEGQDTIHGHRGS [IGP1158] (also: Arg may be citrulline in one of each IGP pair, not given here)”, the LIA signals [1] was “positive”, the “Reactivity in the LIA system” value [1] was “Reactivity was noted” and the “Immunoreaction towards peptide” value [1] was “best reactive”. The “Reactivity of sera on synthetic peptides” value [1] was “negative”, the “Immunoreactivity … number of reactive sera” value [1, 2] was 5/79 and the “Immunoreactivity … percentage of reactive sera” value [1, 2] was 6.3%. The “Immunoreactivity … number of reactive sera” value [1, 3] was 42, the “Immunoreactivity … percentage of reactive sera” value [1, 3] was 27.1% and the “Immunoreactivity … number of reactive sera” value [1, 4] was 41. For the same sequence, the “Immunoreactivity … percentage of reactive sera” value [1, 4] was 43.6%, the “Immunoreactivity … number of reactive sera” value [1, 5] was 1 and the “Immunoreactivity … percentage of reactive sera” value [1, 5] was 6.3%. For the same sequence, the “Immunoreactivity … number of reactive sera” value [1, 6] was 24, the “Immunoreactivity … percentage of reactive sera” value [1, 6] was 32% and the “number of sera significantly inhibited” value (anti-filaggrin binding) was 1.

In the case of “HSTSQEGQDTIHGHRGS [IGP1182] (also: Arg may be citrulline in one of each IGP pair, not given here) [reference compound]”, the LIA signals [1] is reported as “disappeared completely”.
